Patent US7915009B2, “Activation and inhibition of the immune system” (The Mathilda and Terence Kennedy Institute of Rheumatology …, priority 1999, dated 2011)
Entries after “also recorded” stand apart in the source; their conditions may differ. Where a SMILES comes first, the peptide text is derived from it. The star is where a group is joined. Cbz = O=C(OCc1ccccc1)*; OtBu = CC(C)(C)O*

Experiments:
mature DC [1] = experiment: Surface antigen expression on PSI-treated DC (FACScan); type: cell-based, human
Method: FIG. 3. Effect of PSI on the expression of surface antigens was studied using monoclonal antibodies, HLA-DR, CD86 (PE conjugated); Pharmingen, San Diego, Calif.). on day 6 after PSI treatment, populations of untreated (green line), PSI (0.1 μM) treated (blue dotted line), PSI (1 μM) treated (red dotted line) were phenotyped with the MoAbs listed above and analysed on FACScan (Becton Dickinson).
(§1) For FACS staining, cells were first harvested. For adherent cells where surface receptors need to be intact, a warm 2% EDTA in PBS solution was used for 20 min at 37° C. After cells were in solution, they were washed once and then resuspended in ice-cold FACS washing buffer. All subsequent incubations were performed at 4° C. For each analysis, 5×10^5 cells were incubated with the relevant antigen-specific antibody or isotype control for 30 min and then washed twice with FACS washing buffer. Cells were then examined by flow cytometry. cells were ready for analysis on a FACScan flow cytometer (Becton and Dickinson) by using the CellQuest (Becton Dickinson). Directly conjugated monoclonal antibodies to HLA-DR, HLA-A,B,C, CD80, CD86, CD3, CD14 and CD25 were purchased by Pharmingen, San Diego, USA).

allo-lymphocytes [2] = experiment: Surface antigens on allo-lymphocytes cultured with PSI-treated DC (FACScan); type: cell-based, human
Method: FIG. 7. […] Lymphocytes were cultured for 6 days as the same conditions with allo-MLR experiment using vehicle treated DC (green line), or PSI (1 μM) treated DC (red line). Each lymphocytes were phenotyped with MoAbs, CD3, CD25 (PE conjugated; Pharmingen), (CD54) (PE conjugated; Serotec), CD50 (FITC conjugated; Serotec) and analysed by FACScan.
as §1

mature DC [3] = experiment: Cell viability of DC treated with PSI, propidium iodide staining (FACS); type: cell-based, human; conditions: PSI for 4 h, analysed 6 days after treatment
Method: FIG. 1. Cell viability of DC treated with PSI. Mature DC was either left untreated, or treated with various doses of PSI for 4 h. After wash, cells were cultured in RPMI 1640 supplemented as described without monocyte condition medium. 6 days after treatment, cells were resuspended in PBS containing 10 μg/ml. Of propidium iodide PI and analysed on FACS scan.
(§2) PSI is an inhibitor of proteosome activity and as such is capable of inhibiting induced IκB degradation and subsequent NF-κB activation. We used PSI to examine the function of NFκB in dendritic cell (DC) activity particularly in relation to antigen presentation and activation of T cells. We have previously shown that PSI is capable of inhibiting NFκB activation at concentrations up to 1 μM. To test the effect of PSI on DC viability mature DC were incubated with concentrations of PSI, ranging from 0.1 μM to 5 μM. […] To assess the role of NFκB in DC function, mature DC were incubated with 0.3 μM, 0.5 μM or 1 μM PSI for […] and the cells washed. As PSI is an activated peptide that binds irreversibly to the proteosomes, the function of the DC can be assessed over the 6 day period of the MLR despite the short period of drug exposure.

allo-lymphocytes [4] = experiment: Cytokine production of allo-lymphocytes co-cultured with PSI-treated DC (ELISA); type: cell-based, human
Method: FIG. 8. Cytokine production of allo-lymphocytes co-cultured with vehicle treated or PSI treated DC. Mature DC was treated with vehicle or PSI (1 μM) as described above. Allo-lymphocytes and each DC were plated at 2×10^5 cells per well on a 96 well plate and stimulated with PMA (10 nM) or left unstimulated for […].
(§3) Cells were pre-treated with vehicle or 1 μM of PSI for 4 h, or infected with adenoviral vectors for 2 h. PSI-treated DC were then directly used in experiments whereas infected cells were further cultured for 2 days to allow overexpression of the relevant protein to occur. 24 h after stimulation of the cells, culture supernatants were collected and kept frozen. Cytokine levels in cell culture supernatants were measured by standard 2 or 3 layer sandwich ELISA techniques using specific monoclonal and polyclonal antibodies for TNFα, IL-4, IL-6, IL-8, IL-12 and IFNγ. Antibody pairs and standards for these assays have been purchased from Pharmingen, with the exception of IL-12 reagents that were gifted from the Genetics Institute (Boston, USA).

mature DC [5] = experiment: Cytokine production of DC treated with PSI (ELISA); type: cell-based, human; conditions: PSI 1 μM
Method: FIG. 9. Cytokine productions of DC treated with vehicle or PSI. Mature DC was treated with vehicle or PSI (1 μM) as described above. Each DC and allo-lymphocytes were plated at 2×10^5 cells per well on a 96 well plate and stimulated with PMA (10 nM) or left unstimulated for 48 hr. Supernatants were analysed for IL-6, IL-8, IL-12 and TNFα by ELISA.
as §3

mature DC [6] = experiment: Allogeneic MLR with PSI-treated DC, 3H-TdR uptake; type: cell-based, human; conditions: day 6
Method: FIG. 2. Immunostimulatory capacity of DC treated with the proteosome inhibitor Cbz-Ile-Glu(O-tert-bytyl)-Ala-leucinal (PSI). Mature DC was treated with PSI (0.1 μM: ▴), (0.5 μM: ▪), (1, μM: ●) or without PSI (∘) for 4 h. After wash, different numbers of each category of DC and […] of allo-lymphocytes were plated on a 96 well plate. Proliferation was determined at day 6 using ^3H-TdR uptake assay. (Each point represents mean+/−SEM from five separate experiments).
To assay the immunostimulatory capacity of non-irradiated or irradiated (3000 rad from a ^137Cs source) DC, uninfected, adenovirus-infected, LPS-treated or monocyte-conditioned medium-treated DC were cultured in graded doses with 1×10^5 of allogeneic elutriated T cells in quadruplicate in a 96-well flat-bottom microtiter plate (Falcon). Proliferation was measured on day 5 by thymidine incorporation after a 16 h pulse with [^3H] thymidine (0.5 μCi/well; Amersham Life Science, UK).
as §2

allo-lymphocytes [7] = experiment: Allo-MLR with mixtures of PSI-treated and vehicle-treated DC; type: cell-based, human; conditions: judged from slope of proliferative response curves, PSI 1 μM
Method: FIG. 5. PSI pre-treated DC inhibit the growing ability of lymphocytes in allo-MLR. Mature DC was treated with PSI as described above. After washing, each DC was mixed to make different compositions: vehicle treated DC only (∘), ¼ number of PSI treated DC mixed with ¾ vehicle treated DC (●), ⅛ number of PSI treated DC mixed with […] vehicle treated DC (▪), or PSI treated DC only (▴). Graded number of each mixture and 10^5 cells of allo-lymphocytes were plated on a 96 well plate. Proliferation was determined at day 6 by ^3H-TdR uptake assay.
(§4) A means of detecting whether PSI-DC were generating inhibitory effects is to culture T cells with a mixture of PSI treated and untreated DC. […] Next we investigated whether exposure to PSI-DC would induce long term unresponsiveness in the T cells. T cells were exposed to normal or PSI-DC as previously described after which the T cells were collected and were treated with a DC for a second time and the proliferative response measured (FIG. 6). […] This would indicate that the effects of exposure to PSI-DC are prolonged and the T cells acquire a non-responsive or anergic state.

allo-lymphocytes [8] = experiment: Re-stimulation of allo-lymphocytes pre-cultured with PSI-treated DC; type: cell-based, human
Method: FIG. 6. Impaired response of allo-lymphocytes pre-cultured with PSI treated or non-treated DC. Lymphocytes were co-cultured with 1/10 number of PSI treated (●, ▴) or non-treated DC (∘,Δ). After 2 days, each DC were removed by CD83, CD86 coated plate. Lymphocytes were cultured for another 4 days using vehicle treated DC (∘,●), or PSI (1 μM) treated DC (Δ,▴). Proliferation was determined by ^3H-TdR uptake assay. (Each point represents mean+/−SEM from three separate experiments).
as §4
Further questions as to the mechanism of the lack of the T cell proliferative response were addressed. It could simply be due to lack of immunogenicity of the DC, or alternatively it could be due to the induction of a form of immunological tolerance or of immune regulation. The mechanism was analysed further by coculture experiments, adding PSI treated DC to untreated DC, and analysing the effect of the mixture on unprimed T cells in the MLR. […] Similar effects have been reported in a variety of tolerance models Zanders et al (1983) Nature 303, 625-627; Zanders et al (1985) J. Immunol. 15, 302-305; Park et al (1997) Eur. J. Immunol. 15, 302-305; and Waldmann & Cubbold (1998) Ann. Rev. Immunol. 16, 619-644 and so we asked whether PSI treated DC induced immunological tolerance. This was assessed by first exposing allogeneic T cells to PSI treated DC for 2 days, and then removing them, by panning with anti CD83 and anti CD86. […]

NFκB = conditions: previously shown by the inventors; cited from earlier work
[9] = 1 μM PSI, 6 days after treatment
[10] = 6 days with PSI (1 μM) treated DC

For `CC[C@H](C)[C@H](NC(=O)OCc1ccccc1)C(=O)N[C@@H](CCC(=O)OC(C)(C)C)C(=O)N[C@@H](C)C(=O)N[C@H](C=O)CC(C)C` [PSI, Cbz-Ile-Glu(O-tert-bytyl)-Ala-leucinal] (Cbz-IE(OtBu)AL-aldehyde), the “CD86 expression on DC” value (mature DC [1]; [9]) was “reduced, to virtually background levels; also recorded: marked reduction”, the “HLA-DR expression on DC” value (mature DC [1]; [9]) was “major reduction; also recorded: marked reduction” and the “HLA-DR expression on DC” value (mature DC [1]; 0.1μ PSI, 6 days after treatment) was “minimal effect”. The “CD80 expression on DC” value (mature DC [1]; PSI-treated DC) was “downregulation”, the “yields of T cells after culture with PSI treated DC” value (allo-lymphocytes [2]; 6 days culture) was “lower” and the “CD3 expression on T lymphocytes” value (allo-lymphocytes [2]; [10]) was “reduced expression”. For the same compound, the “CD11a (LFA-1) expression on T lymphocytes” value (allo-lymphocytes [2]; [10]) was “only marginally reduced; also recorded: some reduction”, the “CD25 expression on T lymphocytes” value (allo-lymphocytes [2]; [10]) was “virtually abolished” and the “CD54 (ICAM-1) expression on T lymphocytes” value (allo-lymphocytes [2]; [10]) was “reduced to a degree similar to CD3; also recorded: some reduction”. The “PSI concentrations showing some toxicity (propidium iodide staining)” value (mature DC [3]) was > 5 µM, the “IFNγ production by T cells in response to PSI-DC” value (allo-lymphocytes [4]; PSI 1 μM) was “not produced” and the “IL-2 production by T cells in response to PSI-DC” value (allo-lymphocytes [4]; PSI 1 μM) was “not produced”. For the same compound, the “IL-4 production by T cells in response to PSI-DC” value (allo-lymphocytes [4]; PSI 1 μM) was “unaffected; also recorded: not changed”, the “inhibition of IFNγ production of T cells exposed to PSI treated DC” value (allo-lymphocytes [4]; PSI treated DC) was “more than 90%” and the “inhibition of IL-2 production of T cells exposed to PSI treated DC” value (allo-lymphocytes [4]; PSI treated DC) was “more than 90%”. For the same compound, the “IL-6 expression from PSI-DC during the MLR” value (mature DC [5]) was “to a lesser extent, IL-6 expression was inhibited; also recorded: not changed”, the “IL-8 production from PSI-DC during the MLR” value (mature DC [5]) was “unaffected; also recorded: not changed” and the “IL-12 production by PSI treated DC” value (mature DC [5]) was “Reductions”. The “TNF expression from PSI-DC during the MLR” value (mature DC [5]) was “inhibited; also recorded: Reductions”, the “T cell proliferation in allogeneic MLR” value (mature DC [6]; DC pretreated with PSI 0.1 μM) was “no detectable effect” and the “T cell proliferation in allogeneic MLR” value (mature DC [6]; DC pretreated with PSI 0.5 μM) was “failure of the T cells to proliferate”. The “T cell proliferation in allogeneic MLR” value (mature DC [6]; DC pretreated with PSI 1 μM) was “failure of the T cells to proliferate”, the “reduction of proliferative response by ⅛ or ¼ PSI-DC mixed with untreated DC” value (allo-lymphocytes [7]) was 3-5 fold and the “response of T cells stimulated with PSI-DC prior to normal DC” value (allo-lymphocytes [8]; 2 days PSI-DC, then 4 days normal DC) was “unable to respond; also recorded: lack of response”. The “response of T cells exposed to PSI-DC on the second round after normal DC” value (allo-lymphocytes [8]; PSI 1 μM) was “failed to proliferate”, the “response of T cells to two rounds of PSI-DC” value (allo-lymphocytes [8]; PSI 1 μM) was “did not respond” and the “concentrations at which PSI inhibits NFκB activation” value (NFκB) was “up to 1 μM”.
